Test systems include IGROV1 ovarian; OVCAR-3 ovarian; OVCAR-4 ovarian; OVCAR-5 ovarian; OVCAR-8 ovarian; SF-539 CNS; SK-MEL-2 melanoma; SK-OV-3 ovarian; SR leukemia; UACC-257 melanoma.
Common to all, as to experiment: inhibition of tumour cell growth, NCI panel, 48 h

Where “and” joins values, the source holds several entries; their conditions need not be identical. Identical values can stand only once.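 The compound was tested at five concentrations on cells cultured in 96-well plates, with a 48-hour exposure period. GI50 is the concentration that inhibits growth by half. TGI: total growth inhibition.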

On to `O=C1/C(=C/c2ccccc2)CCC/C1=C\c1ccccc1`, for which the GI50 in the assay on IGROV1 ovarian was 8.37 µM and 14.6 µM; in the assay with OVCAR-3 ovarian it was 6.25 µM and 4.04 µM; in the assay with OVCAR-4 ovarian, 6.18 µM; in the assay with OVCAR-5 ovarian, 6.75 µM and 22 µM; in the assay on OVCAR-8 ovarian it was 3.57 µM; in the assay with SF-539 CNS, 6.9 µM and 22.3 µM. In addition, the GI50 is 6.19 µM and 22.7 µM in the assay with SK-MEL-2 melanoma; 6.28 µM in the assay with SK-OV-3 ovarian; 10.8 µM and 3.16 µM in the assay with SR leukemia; 6.3 µM and 13.1 µM in the assay on UACC-257 melanoma. Further, the TGI in the assay on IGROV1 ovarian is 14.1 µM and 29.4 µM and > 100 µM; in the assay with OVCAR-3 ovarian it was 11.3 µM and 24 µM and 13 µM; in the assay on OVCAR-4 ovarian, 11.8 µM and 32.4 µM; in the assay on OVCAR-5 ovarian, 12 µM and 31.7 µM and 43.3 µM; with OVCAR-8 ovarian, 13.6 µM and 28.1 µM and 25.4 µM; with SF-539 CNS, 12.2 µM and 32.7 µM and 53.4 µM. Also, the TGI in the assay on SK-MEL-2 melanoma was 13.9 µM and 35.5 µM and 49.9 µM; with SK-OV-3 ovarian, 12 µM and 43.1 µM and 46.7 µM; in the assay on SR leukemia, 36.5 µM and > 64.3 µM and 7.58 µM; in the assay on UACC-257 melanoma, 11.7 µM and 39.8 µM and 33.3 µM.

Take `CCC1CC(=O)N(SCC(N)C(=O)O)C1=O` (configuration not stated): the TGI with IGROV1 ovarian, with OVCAR-3 ovarian, in the assay with OVCAR-4 ovarian, with OVCAR-5 ovarian, in the assay on OVCAR-8 ovarian and in the assay with SF-539 CNS was > 100 µM in each case. Moreover, the TGI with SK-MEL-2 melanoma, in the assay with SK-OV-3 ovarian, in the assay on SR leukemia and with UACC-257 melanoma was > 100 µM each time.

With `Oc1cc(O)c2c(=S)cc(-c3ccc(Cl)cc3)oc2c1`, the GI50 was 0.533 µM in the assay with IGROV1 ovarian; 1.52 µM in the assay with OVCAR-3 ovarian; 0.379 µM in the assay on OVCAR-4 ovarian; 11.1 µM in the assay with OVCAR-5 ovarian; 3.3 µM in the assay with OVCAR-8 ovarian; 3.31 µM in the assay on SF-539 CNS. The GI50 in the assay with SK-MEL-2 melanoma was 2.61 µM; in the assay with SK-OV-3 ovarian it was 2.77 µM; with SR leukemia it was 3.52 µM; in the assay with UACC-257 melanoma, 2.75 µM. The TGI is 16.5 µM in the assay with IGROV1 ovarian; 8.94 µM with OVCAR-3 ovarian; > 31.8 µM with OVCAR-4 ovarian; 32.5 µM with OVCAR-5 ovarian; 14.9 µM in the assay with OVCAR-8 ovarian; 17.1 µM in the assay on SF-539 CNS. Besides, the TGI with SK-MEL-2 melanoma came to 7.46 µM; in the assay with SK-OV-3 ovarian, 18.2 µM; with SR leukemia, 29.6 µM; in the assay with UACC-257 melanoma, 7.96 µM.

`COc1ccc(C2=C(c3cc(OC)c(OC)c(OC)c3)C(=O)CC2)cc1`: the GI50 in the assay with IGROV1 ovarian was 0.58 µM; in the assay with OVCAR-3 ovarian it was 0.0598 µM; in the assay with OVCAR-4 ovarian it was 0.689 µM; in the assay on OVCAR-5 ovarian it was 0.662 µM; in the assay with OVCAR-8 ovarian, 0.392 µM; in the assay with SF-539 CNS it was 0.189 µM. Besides, the values for the GI50 with SK-MEL-2 melanoma, in the assay with SK-OV-3 ovarian and with SR leukemia were 0.971 µM, 0.179 µM and 0.0335 µM, respectively. Also, the TGI with IGROV1 ovarian was > 100 µM; with OVCAR-3 ovarian, 0.242 µM; in the assay on OVCAR-4 ovarian it was > 100 µM; in the assay with OVCAR-5 ovarian, > 100 µM; in the assay on OVCAR-8 ovarian, > 100 µM; with SF-539 CNS it was > 48.3 µM. The TGI with SR leukemia and with UACC-257 melanoma was > 100 µM throughout.

Regarding `C#CCNC(=O)CC[C@]1(C)[C@H]2CC[C@@H]3[C@@H]([C@@](C)(O)CCC=C(C)C)CC[C@@]3(C)[C@]2(C)CC[C@H]1C(=C)C`, the GI50 in the assay on IGROV1 ovarian was 10.2 µM; in the assay on OVCAR-3 ovarian, 31.3 µM; in the assay on OVCAR-4 ovarian it was 43.6 µM; in the assay with OVCAR-5 ovarian it was 51.9 µM; with OVCAR-8 ovarian, 31.3 µM; in the assay with SF-539 CNS, 17.2 µM. Further, the GI50 is 47.1 µM in the assay with SK-MEL-2 melanoma, > 100 µM in the assay on SK-OV-3 ovarian, 3.05 µM in the assay with SR leukemia and 68 µM with UACC-257 melanoma. Besides, the TGI with IGROV1 ovarian was 25.4 µM; in the assay on OVCAR-3 ovarian, 89.9 µM; in the assay on OVCAR-4 ovarian, > 100 µM; with OVCAR-5 ovarian, > 100 µM; in the assay with OVCAR-8 ovarian, > 100 µM; in the assay with SF-539 CNS it was 31.1 µM. Moreover, the TGI in the assay with SK-MEL-2 melanoma was > 100 µM; with SK-OV-3 ovarian it was > 100 µM; in the assay with SR leukemia it was 19.2 µM; with UACC-257 melanoma, > 100 µM.

As to `Cc1cc(C)cc(Sc2c([N+](=O)[O-])ncn2C)c1`, the TGI with IGROV1 ovarian came to 55.1 µM; with OVCAR-3 ovarian, 34.3 µM; with OVCAR-4 ovarian it was 44.1 µM; with OVCAR-5 ovarian it was 53.5 µM; in the assay on OVCAR-8 ovarian it was 29.7 µM; in the assay on SF-539 CNS it was 20.9 µM. In addition, the TGI with SK-MEL-2 melanoma is 25.8 µM; in the assay on SK-OV-3 ovarian, 75.5 µM; in the assay on SR leukemia, 41 µM; in the assay on UACC-257 melanoma, 27.7 µM.

`COC(=O)Nc1nc2cc3c(cc2s1)OCCO3`: the GI50 with IGROV1 ovarian, in the assay with OVCAR-3 ovarian, in the assay with OVCAR-4 ovarian, in the assay with OVCAR-5 ovarian, in the assay on OVCAR-8 ovarian and in the assay with SF-539 CNS was > 50 µM in each case. Besides, the GI50 with SK-MEL-2 melanoma, in the assay on SK-OV-3 ovarian, in the assay on SR leukemia and with UACC-257 melanoma was > 50 µM throughout. In addition, the TGI in the assay on IGROV1 ovarian, in the assay on OVCAR-3 ovarian, with OVCAR-4 ovarian, in the assay with OVCAR-5 ovarian, with OVCAR-8 ovarian and in the assay with SF-539 CNS was > 50 µM each time. Moreover, the TGI in the assay with SK-MEL-2 melanoma, in the assay with SK-OV-3 ovarian, with SR leukemia and in the assay with UACC-257 melanoma was > 50 µM throughout.
